One data set relates to Src. Briefly: Western blot of Src phosphorylation in LnCAP cells. Format: cell-based, human. The following applies: 20 μM, 30 min before 25 nM DHT. The method, then: (§1) LnCAP and PC3 cell lines were obtained from ATCC and cultured in RPMI 1640 medium (Invitrogen) containing 10% FBS and 1% penicillin-streptomycin. For experiments involving pharmacological inhibitors, cells were treated overnight with serum-free, phenol red-free RPMI 1640 media. Thereafter, cells were treated with vehicle (0.1% DMSO) or inhibitors Galardin, PP2, AG1478 (Calbiochem), flutamide, or erlotinib (Sigma) for 30 minutes before stimulation with 0.1% ethanol (vehicle) or 25 nM DHT for 30 minutes.
(§2) Western blots were performed as described (Evaul and Hammes, “Cross-Talk Between G Protein-Coupled and Epidermal Growth Factor Receptors Regulates Gonadotropin-Mediated Steroidogenesis in Leydig Cells,” J. Biol. Chem. 283(41):27525-27533 (2008), which is hereby incorporated by reference in its entirety). Primary antibodies were: paxillin, paxillinphospho-Tyr118, paxillin-phospho-Tyr31, Akt1/2/3, Akt1/2/3 phospho-Ser473, EGFR at 1:1000 dilution, and EGFR phospho-Tyr845 (1:500) (Santa Cruz Biotechnology); paxillin phospho-Ser126 (Invitrogen); paxillin phospho-Ser83 (ECM Biosciences); p44/42-Erk1/2, phospho-p44/42-Erk1/2 (Thr202/[…]), phospho-Ser217/221-MEK1/2, src, src-phospho-Tyr416 (Cell Signaling Technology) at 1:1000 dilutions and f3-actin (1:5000, Millipore).
(In general: Immunoblotting shows a protein as a band on a membrane.)

For data set [1], the system named is paxillin. The data set can be described thus: Western blot of paxillin phosphorylation in LnCAP cells. The data set is classed as cell-based, human. The following applies: for DHT-induced paxillin phosphorylation at all four sites (tyrosines 31/118, serines 83/126): AG1478 or 20 μM PP2 before DHT. The protocol:
as §1, §2

In the next data set the test system is MEK. To be noted: MLTC cells; 20 μM; cited from earlier work.
In another data set the test system is PSA mRNA. Briefly: PSA mRNA expression by real time PCR in LnCAP cells. The data set is classed as cell-based, human. The following applies: 20 μM U0126 or 20 μM AG1478 30 minutes before 25 nM DHT 24 hours. The method, then:
RNA was isolated with the RNeasy mini kit (Qiagen) according to manufacturer's instructions. Levels of Kallikrein-related peptidase-3 (KLK3, or prostate-specific antigen (“PSA”)), paxillin, cyclin D1, and GAPDH expression were analyzed by the A/A-Ct method using Taqman gene expression assay primers (assay ID# Hs99999905_ml-GAPDH, Hs02576345_ml-KLK3, Hs99999004_ml-CCND1, and Hs01104424-ml-PXN; Applied Biosystems) on an ABI StepOne plus real-time PCR machine.

Another data set deals with Erk1/2. Briefly: Western blot of Erk1/2 phosphorylation in LnCAP cells. The following applies: for DHT-induced Erk1/2 phosphorylation: inhibitor 30 min (100 nM flutamide, 20 μM AG1478, 5 μM Erlotinib, 20 μM PP2, 20 μM galardin) before 25 nM DHT 30 min. The data set is classed as cell-based, human. The method, then:
Thereafter, cells were treated with vehicle (0.1% DMSO) or inhibitors Galardin, PP2, AG1478 (Calbiochem), flutamide, or erlotinib (Sigma) for 30 minutes before stimulation with 0.1% ethanol (vehicle) or 25 nM DHT for 30 minutes.
PC3 or LnCAP cells were treated with non-targeting siRNA pool (ThermoFisher Scientific) or paxillin-specific siRNA according to manufacturer's instructions. Two sets of human paxillin siRNAs were used: 1) human paxillin siRNA (Santa Cruz Biotechnology) containing three target-specific 20-25 nucleotide siRNAs or 2) human paxillin siRNA ON-TARGET plus SMARTpoo1 (ThemoFisher Scientific) containing four siRNAs targeting the paxillin mRNA. […] For experiments involving constitutively active (“CA”) Raf (William Walker, University of Pittsburgh) or MEK (Melanie Cobb, University of Texas Southwestern Medical Center), cells were co-transfected with paxillin or nonspecific siRNAs and cDNAs encoding caRaf or caMEK.

For the next data set, the system named is androgen receptors (AR). The data set can be described thus: Androgen receptor nuclear localization by fluorescence imaging. The data set is classed as cell-based. The protocol:
Cellular staining was carried out using fluorescence imaging for androgen receptors (AR) and DAPI. […] Furthermore, knockdown and rescue experiments confirm that phosphoserine-paxillin is the moiety regulating AR translocation to the nucleus, since the mutant lacking the Erk serine targets (S A) cannot sustain AR nuclear localization (FIG. 17F versus 17E). Importantly, leptomycin B, which prevents nuclear export through CRM, rescues the nuclear localization of the AR in paxillin-knockdown cells stimulated with DHT (FIG. 17D). […] The latter allows the AR to remain in the nucleus, bind DNA, and promote transcription.

The next data set has as its system EGFR. The data set can be described thus: EGFR transactivation assay in A431 cells. The data set is classed as cell-based. The method, then: A431 cells were used to detect DHT-mediated release of EGFR ligands from LnCAP cells. A431 cells (ATCC) were cultured in DMEM/F-12 (1:1) medium (Invitrogen) containing 10% FBS and 1% penicillin-streptomycin, serum-starved overnight, and then stimulated with medium from DHT−, DHT+Galardin−, or vehicle (0.1% ethanol)-treated LnCAP cells for 60 minutes. As controls, A431 cells were stimulated with DHT or media alone. Thereafter, A431 cells were isolated for Western blot analysis to detect phosphorylated and total EGFR.

For data set [2], the system named is paxillin. The data set can be described thus: Subcellular localization of paxillin and phosphoserine-paxillin. Format: cell-based. The following applies: upon stimulation with DHT or EGF. An excerpt:
The subcellular localization of paxillin versus phosphoserine-paxillin was first examined. As expected, paxillin is localized primarily in the cytoplasm in resting cells (FIG. 14, unstimulated). […] This confirms the model of FIG. 9C, which posits that phosphoserine-paxillin regulates nuclear processes. Therefore, a common AR-mediated transcriptional event was examined: expression of PSA mRNA. […] Furthermore, knockdown of endogenous paxillin in LnCAP cells prevented DHT-induced induction of PSA mRNA expression and promoter activity (FIGS. 9A and 15). […] Together, these studies further emphasize that paxillin regulates cross-talk between extranuclear kinase signaling and intranuclear transcription.

The test system of the next data set is LnCAP cells. Briefly: MTT cell proliferation assay, LnCAP cells. Format: cell-based, human. The method, then: PC3 or LnCAP cells were treated with non-targeting siRNA pool (ThermoFisher Scientific) or paxillin-specific siRNA according to manufacturer's instructions. Two sets of human paxillin siRNAs were used: 1) human paxillin siRNA (Santa Cruz Biotechnology) containing three target-specific 20-25 nucleotide siRNAs or 2) human paxillin siRNA ON-TARGET plus SMARTpoo1 (ThemoFisher Scientific) containing four siRNAs targeting the paxillin mRNA. The latter was used for all experiments described in the accompanying Examples, although results were similar with both pools. For experiments involving constitutively active (“CA”) Raf (William Walker, University of Pittsburgh) or MEK (Melanie Cobb, University of Texas Southwestern Medical Center), cells were co-transfected with paxillin or nonspecific siRNAs and cDNAs encoding caRaf or caMEK. After 72 hours, cells were treated overnight with serum-free, phenol red-free RPMI 1640 media and stimulated with 0.1% ethanol/DMSO (vehicle), 25 nM DHT (Steraloids), 20 ng/ml EGF (BD Biosciences), or 100 nM PMA (Sigma) for the times indicated for Western blots or 24 hours for MTT assays.
MTT assays were performed using a colorimetric assay cell proliferation kit (Roche Applied Science) according to the manufacturer's instructions.

Data set [3] deals with paxillin. Briefly: Western blot of paxillin phosphorylation in PC3 cells. Format: cell-based, human. The following applies: PMA 100 nM or EGF 20 ng/ml, 30 minutes. The protocol: FIGS. 8A-D illustrate that PMA-mediated Erk1/2 activation is paxillin-independent, but PMA-mediated proliferation still requires serine phosphorylation of paxillin. In FIG. 8A, paxillin (Pax) or non-targeting (Nsp) siRNA-treated LnCAP cells were serum-starved and treated with PMA (100 nM) or EGF (20 ng/ml) for 30 minutes. Western blots were performed for paxillin and total and phosphorylated Erk1/2. In FIG. 8B, serum-starved PC3 cells were pretreated with 0.1% DMSO or 20 μM U0126 ([…]) for 30 minutes before stimulation with PMA (100 nM) or EGF (20 ng/ml) for another 30 minutes. Thereafter, levels of paxillin and phosphorylated paxillin at tyrosine-118 (Pax p-Y118) and serine-126 (Pax p-S126) were detected by Western blot. In FIG. 8C, cell proliferation (MTT assay) of PC3 cells treated (24 hours) with 0.1% DMSO (M) or 100 nM PMA in the presence or absence of 20 μM U0126. In FIG. 8D, PC3 cells were initially transfected with Paxillin (Pax) or non-targeting (Nsp) siRNA. After 96 hours, media were removed, and cells were then either mock-transfected or transfected with wild-type paxillin (left panel) or paxillin mutated at tyrosines 31/118 (Y31A/Y118A, middle panel) or serines 83/126/130 (S83A/S126A/S130A, right panel). […] Cell proliferation was detected by MTT. […]

Data set [4] concerns the target prostate-specific membrane antigen (PSMA) (Homo sapiens, UniProt Q04609). To be noted: cited from earlier work.

Chain of prostate-specific membrane antigen (PSMA) (Q04609 whole entry): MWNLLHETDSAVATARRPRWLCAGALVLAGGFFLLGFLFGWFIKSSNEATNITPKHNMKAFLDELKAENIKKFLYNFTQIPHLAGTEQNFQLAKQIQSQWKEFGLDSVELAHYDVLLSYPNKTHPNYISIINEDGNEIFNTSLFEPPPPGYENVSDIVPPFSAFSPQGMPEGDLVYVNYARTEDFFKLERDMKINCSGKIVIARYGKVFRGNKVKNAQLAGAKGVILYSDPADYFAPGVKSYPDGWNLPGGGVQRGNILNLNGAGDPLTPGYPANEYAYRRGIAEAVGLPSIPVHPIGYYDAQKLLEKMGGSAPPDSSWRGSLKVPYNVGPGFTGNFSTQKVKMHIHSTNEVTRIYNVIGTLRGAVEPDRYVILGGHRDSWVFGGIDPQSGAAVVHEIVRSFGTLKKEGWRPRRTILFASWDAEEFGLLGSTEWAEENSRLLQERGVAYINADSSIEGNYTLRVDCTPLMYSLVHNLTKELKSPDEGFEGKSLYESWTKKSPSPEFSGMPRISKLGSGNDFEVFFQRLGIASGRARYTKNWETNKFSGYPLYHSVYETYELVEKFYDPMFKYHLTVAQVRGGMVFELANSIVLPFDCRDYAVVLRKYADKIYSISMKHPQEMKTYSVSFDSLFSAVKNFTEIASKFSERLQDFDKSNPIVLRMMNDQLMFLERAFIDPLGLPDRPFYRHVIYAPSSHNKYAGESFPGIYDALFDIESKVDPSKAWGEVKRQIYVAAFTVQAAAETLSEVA

As to `COc1cc2ncnc(Nc3cccc(Cl)c3)c2cc1OC` [AG1478], the “DHT-induced Src phosphorylation” value in the data set on Src is reported as “blocked”. Also, the “DHT-induced paxillin phosphorylation at all four sites (tyrosines 31/118, serines 83/126)” value in the data set on paxillin [1] is “abrogated”. Moreover, the “EGF but not FGF-induced MEK activation” value in the data set with MEK is “specifically blocks”. Moreover, the “DHT-induced expression of PSA mRNA” value with PSA mRNA is “abrogated”. Besides, in the data set on Erk1/2 (20 μM AG1478, EGF 20 ng/ml), the “EGF-induced Erk activation” value is reported as “specifically blocks”. Also, the “FGF-induced Erk activation” value with Erk1/2 (20 μM AG1478, FGF 25 ng/ml) is on record as “does not block”. The “DHT-induced Erk1/2 phosphorylation” value with Erk1/2 is given as “blocked”.
On to `C[C@]12CCC(=O)C[C@@H]1CC[C@@H]1[C@@H]2CC[C@]2(C)[C@@H](O)CC[C@@H]12` [DHT], for which the AR nuclear localization result in the data set with androgen receptors (AR) (DHT-treatment) is on record as “promotes”. The “phosphorylation of paxillin at tyrosines 31/118 and serines 83/126” value in the data set on paxillin [1] (25 nM DHT, 30 minutes) is recorded as “triggered”. In addition, the “EGF receptor activation in A431 cells, direct stimulation” value in the data set on EGFR (DHT alone (25 nM), no LnCAP cells) is listed as “did not promote”. The “EGF receptor phosphorylation in A431 cells by medium from treated LnCAP cells” value in the data set with EGFR (medium from 25 nM DHT-treated LnCAP cells, 60 minutes) is “increased”. For the same molecule, the “Erk1/2 activation from 15 to 120 minutes” value in the data set with Erk1/2 (25 nM DHT or 20 ng/ml EGF) is on record as “induced”. Also, in the data set on Erk1/2 (25 nM DHT, 30 minutes), the Erk1/2 phosphorylation/activation result is recorded as “significantly induced”. In the data set on paxillin [2], the “localization of total paxillin (T-Pax)” value is listed as “relocalizes the nucleus” and the “share of phosphoserine-paxillin (PS-PAX) in the nucleus” value was “nearly all”. Further, the “LnCAP proliferation by both MTT and BrdU incorporation” value with LnCAP cells (0.1-100 nM DHT) is “promoted”. In addition, the “cell proliferation (MTT)” value with LnCAP cells (LnCAP, DHT 25 nM or EGF 20 ng/ml, 24 hours) is on record as “significantly stimulated”.
As to `C#Cc1cccc(Nc2ncnc3cc(OCCOC)c(OCCOC)cc23)c1` [Erlotinib], the “DHT-induced Erk1/2 phosphorylation” value with Erk1/2 is listed as “blocked”.
`CCCCCCCCCCCCCC(=O)O[C@@H]1[C@@H](C)[C@@]2(O)[C@@H](C=C(CO)C[C@]3(O)C(=O)C(C)=C[C@@H]23)[C@@H]2C(C)(C)[C@]12OC(C)=O` [PMA]: the “paxillin phosphorylation (tyrosine and serine)” value in the data set with paxillin [3] is given as “only promoted serine phosphorylation”.
Consider `CC(C)(C)n1nc(-c2ccc(Cl)cc2)c2c(N)ncnc21` [PP2], for which, in the data set on paxillin [1], the “DHT-induced paxillin phosphorylation at all four sites (tyrosines 31/118, serines 83/126)” value was “abrogated”. Besides, the “DHT-induced Erk1/2 phosphorylation” value in the data set on Erk1/2 is listed as “blocked”.
For `CNC(=O)[C@H](Cc1c[nH]c2ccccc12)NC(=O)[C@@H](CC(=O)NO)CC(C)C` [galardin], the “ability of medium from DHT-treated LnCAP cells to activate EGF receptor signaling in A431 cells” value in the data set with EGFR (20 μM galardin added to DHT (25 nM)-treated LnCAP cells) is reported as “blocked”. In addition, in the data set with Erk1/2, the “DHT-induced Erk1/2 phosphorylation” value is reported as “block”.
`CCC(=C/[C@H](C)C/C=C/C(C)=C/[C@@H](C)C(=O)[C@@H](C)[C@H](O)[C@@H](C)C/C(C)=C/C(=O)O)/C=C/[C@@H]1OC(=O)C=C[C@@H]1C` [leptomycin B]: the “nuclear localization of the AR in paxillin-knockdown cells stimulated with DHT” value with androgen receptors (AR) (leptomycin B prevents nuclear export through CRM) was “rescues”.
Regarding “Aptamer A10-3: RNA aptamer which binds specifically to PSMA (GGGAGGACGAUGCGGAUCAGCCAUGUUUACGUCACUCCUUGUCAAUCCUCAUCGGC; listed as RNA, chemistry not given here)”, the “binding to PSMA” value in [4] is given as “binds specifically”.

B1: Aptamer A9: RNA aptamer which binds specifically to PSMA (nucleic acid)
chain: GGGAGGACGAUGCGGACCGAAAAAGACCUGACUUCUAUACUAAGUCUACGUUCCCAGACGACUCGCCCGA
modifications: listed as RNA, chemistry not given here
Regarding B1, the “binding to PSMA” value in data set [4] was “binds specifically”.

B2: Aptamer A10: RNA aptamer which binds specifically to PSMA (nucleic acid)
chain: GGGAGGACGAUGCGGAUCAGCCAUGUUUACGUCACUCCUUGUCAAUCCUCAUCGGCAGACGACUCGCCCGA
modifications: listed as RNA, chemistry not given here
On to B2, for which, in data set [4], the “binding to PSMA” value is on record as “binds specifically”.

These data come from patent publication US20130136753A1, “PAXILLIN AS A THERAPEUTIC OR DIAGNOSTIC MARKER FOR CANCER” (UNIVERSITY OF ROCHESTER, priority 2010, published 2013).
